Data: US11739074B2, “Ras inhibitors” (Revolution Medicines, Inc., priority 2019, dated 2023)
Like-named read-outs stand apart in the source and are kept apart here.

Tests used:
AsPC-1 (K-Ras G12D) [1] = assay: Potency assay: pERK in AsPC-1 cells; type: cell-based; settings: Homo sapiens
NCI-H358 (K-Ras G12C) = assay: CellTiter-Glo cell viability assay, H358; type: cell-based; settings: Homo sapiens, NCI-H358, 120 h
Outline: (§1)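 Viability is scored by CellTiter-Glo luminescence on day 5 of compound treatment, relative to vehicle (DMSO) wells set as 100%, with a four-parameter logistic fit.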

KRAS G13C = KRAS G13C (Homo sapiens, UniProt P01116+P62937, G13C); assay: Ras-Raf disruption/FRET/MOA assay, KRAS G13C; type: biochemical
KRAS G13C, sequence (P01116 1-169 isoform P01116-2 G13C limits assumed): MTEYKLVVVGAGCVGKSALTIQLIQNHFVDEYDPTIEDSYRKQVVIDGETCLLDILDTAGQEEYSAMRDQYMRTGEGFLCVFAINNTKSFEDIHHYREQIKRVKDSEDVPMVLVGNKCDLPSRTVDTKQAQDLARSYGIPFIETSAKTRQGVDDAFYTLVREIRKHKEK
KRAS G13C, sequence (P62937 whole entry): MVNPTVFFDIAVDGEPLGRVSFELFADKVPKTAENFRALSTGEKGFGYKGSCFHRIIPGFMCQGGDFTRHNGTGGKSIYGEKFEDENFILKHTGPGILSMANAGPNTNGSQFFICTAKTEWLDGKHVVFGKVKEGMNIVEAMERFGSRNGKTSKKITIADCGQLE
Outline: (§2)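 His6-KRAS-GMPPNP (12.5 nM) was combined with tagless Cyclophilin A (25 μM) and GST-BRAF^RBD (50 nM) in pH 7.3 HEPES buffer with NaCl, MgCl2, Tween20 and BSA. Compound was tested as a 10-point 3-fold series from 30 μM final, 3 h at 25° C. Disruption was read as a drop in TR-FRET ratio versus DMSO.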

NRAS G12C = target: T1, NRAS G12C (Homo sapiens, UniProt P01111+P62937, G12C); assay: Ras-Raf disruption/FRET/MOA assay, NRAS G12C; type: biochemical
T1 construct: His6
T1 sequence (P01111 whole entry G12C): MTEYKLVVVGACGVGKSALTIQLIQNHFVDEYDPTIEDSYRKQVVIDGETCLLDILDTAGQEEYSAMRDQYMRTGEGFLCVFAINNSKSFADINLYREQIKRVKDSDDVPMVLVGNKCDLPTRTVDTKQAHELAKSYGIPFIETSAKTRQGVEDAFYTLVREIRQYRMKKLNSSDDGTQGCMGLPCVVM
T1 sequence (P62937 whole entry): as the sequence (P62937 whole entry) above
Outline: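 Disruption of Ras:RAF binding was read as a drop in TR-FRET ratio versus DMSO controls. The buffer was 25 mM HEPES pH 7.3, 0.002% Tween20, 0.1% BSA, 100 mM NaCl and 5 mM MgCl2. Compounds were tested as a 10-point 3-fold dilution series from 30 μM. Detection used 10 nM anti-His Eu-W1024 and 50 nM anti-GST allophycocyanin.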

KRAS G13D = KRAS G13D (Homo sapiens, UniProt P01116+P62937, G13D); assay: Ras-Raf disruption/FRET/MOA assay, KRAS G13D; type: biochemical
KRAS G13D, sequence (P01116 1-169 isoform P01116-2 G13D limits assumed): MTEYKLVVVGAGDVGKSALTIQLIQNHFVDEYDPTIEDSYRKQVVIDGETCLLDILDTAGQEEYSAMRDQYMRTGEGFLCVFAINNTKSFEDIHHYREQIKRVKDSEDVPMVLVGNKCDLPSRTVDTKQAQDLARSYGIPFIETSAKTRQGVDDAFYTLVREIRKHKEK
KRAS G13D, sequence (P62937 whole entry): as the sequence (P62937 whole entry) above
Outline: as §2

AsPC-1 (K-Ras G12D) [2] = assay: CellTiter-Glo cell viability assay, AsPC-1; type: cell-based; settings: Homo sapiens, ASPC1, 120 h
Outline: as §1

KRAS G12C = KRAS G12C (Homo sapiens, UniProt P01116+P62937, G12C); assay: Ras-Raf disruption/FRET/MOA assay, KRAS G12C; type: biochemical
KRAS G12C, sequence (P01116 1-169 isoform P01116-2 G12C limits assumed): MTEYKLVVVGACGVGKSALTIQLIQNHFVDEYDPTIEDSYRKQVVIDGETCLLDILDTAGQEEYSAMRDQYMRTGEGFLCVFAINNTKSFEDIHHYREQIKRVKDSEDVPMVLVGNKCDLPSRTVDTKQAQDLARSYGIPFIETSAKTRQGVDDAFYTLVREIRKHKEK
KRAS G12C, sequence (P62937 whole entry): as the sequence (P62937 whole entry) above
Outline: as §2

KRAS G12D = KRAS G12D (Homo sapiens, UniProt P01116+P62937, G12D); assay: Ras-Raf disruption/FRET/MOA assay, KRAS G12D; type: biochemical
KRAS G12D, sequence (P01116 1-169 isoform P01116-2 G12D limits assumed): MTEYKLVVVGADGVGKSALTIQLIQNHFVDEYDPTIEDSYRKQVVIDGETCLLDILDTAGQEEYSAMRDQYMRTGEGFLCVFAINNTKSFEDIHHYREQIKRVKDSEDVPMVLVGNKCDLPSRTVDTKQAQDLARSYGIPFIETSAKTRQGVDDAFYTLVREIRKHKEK
KRAS G12D, sequence (P62937 whole entry): as the sequence (P62937 whole entry) above
Outline: as §2

KRAS G12S = KRAS G12S (Homo sapiens, UniProt P01116+P62937, G12S); assay: Ras-Raf disruption/FRET/MOA assay, KRAS G12S; type: biochemical
KRAS G12S, sequence (P01116 1-169 isoform P01116-2 G12S limits assumed): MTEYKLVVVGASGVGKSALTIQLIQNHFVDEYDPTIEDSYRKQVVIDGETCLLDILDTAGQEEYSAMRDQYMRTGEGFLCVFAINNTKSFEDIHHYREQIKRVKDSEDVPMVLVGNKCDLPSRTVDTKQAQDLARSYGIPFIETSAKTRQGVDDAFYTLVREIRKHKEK
KRAS G12S, sequence (P62937 whole entry): as the sequence (P62937 whole entry) above
Outline: as §2

KRAS WT = KRAS WT (Homo sapiens, UniProt P01116+P62937); assay: Ras-Raf disruption/FRET/MOA assay, KRAS WT; type: biochemical
KRAS WT, sequence (P01116 1-169 isoform P01116-2 limits assumed): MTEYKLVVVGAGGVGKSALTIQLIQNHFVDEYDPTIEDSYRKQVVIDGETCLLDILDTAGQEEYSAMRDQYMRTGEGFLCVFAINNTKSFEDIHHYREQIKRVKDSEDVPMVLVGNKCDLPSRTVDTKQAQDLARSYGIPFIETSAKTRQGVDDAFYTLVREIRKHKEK
KRAS WT, sequence (P62937 whole entry): as the sequence (P62937 whole entry) above
Outline: as §2

KRAS G12V = KRAS G12V (Homo sapiens, UniProt P01116+P62937, G12V); assay: Ras-Raf disruption/FRET/MOA assay, KRAS G12V; type: biochemical
KRAS G12V, sequence (P01116 1-169 isoform P01116-2 G12V limits assumed): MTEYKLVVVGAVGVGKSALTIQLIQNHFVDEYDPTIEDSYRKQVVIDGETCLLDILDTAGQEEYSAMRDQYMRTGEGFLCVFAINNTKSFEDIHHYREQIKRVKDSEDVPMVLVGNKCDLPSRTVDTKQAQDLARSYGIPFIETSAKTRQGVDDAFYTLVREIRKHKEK
KRAS G12V, sequence (P62937 whole entry): as the sequence (P62937 whole entry) above
Outline: as §2

[3] = ASPC1, read-out: pERK EC50 (AsPC-1 KRAS G12D)
[4] = read-out: H358 Cell Viability IC50, NCI-H358, K-Ras G12C, 5-day treatment
[5] = NRAS G12C FRET data IC50, NRAS G12C
[6] = read-out: AsPC-1 Cell Viability IC50, AsPC-1, K-Ras G12D, 5-day treatment
[7] = NCI-H358, K-Ras G12C, 5-day treatment, read-out: H358 Cell Viability IC50
[8] = disruption of BRAF RBD binding, with Cyclophilin A, read-out: KRAS G13C FRET IC50
[9] = NRAS G12C, read-out: NRAS G12C FRET data IC50
[10] = disruption of BRAF RBD binding, with Cyclophilin A, read-out: KRAS G13D FRET IC50
[11] = AsPC-1, K-Ras G12D, 5-day treatment, read-out: AsPC-1 Cell Viability IC50
[12] = disruption of BRAF RBD binding, with Cyclophilin A, read-out: KRAS G12C FRET IC50
[13] = disruption of BRAF RBD binding, with Cyclophilin A, read-out: KRAS G12D FRET IC50
[14] = disruption of BRAF RBD binding, with Cyclophilin A, read-out: KRAS G12S FRET IC50
[15] = disruption of BRAF RBD binding, with Cyclophilin A, read-out: KRAS WT FRET IC50
[16] = disruption of BRAF RBD binding, with Cyclophilin A, read-out: KRAS G12V FRET IC50

Compound	EC50 (AsPC-1 (K-Ras G12D) [1]; [3]) [nM]	IC50 (NCI-H358 (K-Ras G12C); [4]) [nM]	IC50 (KRAS G13C) [nM]	IC50 (NRAS G12C; [5]) [nM]	IC50 (KRAS G13D) [nM]	IC50 (AsPC-1 (K-Ras G12D) [2]; [6]) [nM]	IC50 (KRAS G12C) [nM]	IC50 (KRAS G12D) [nM]	IC50 (KRAS G12S) [nM]	IC50 (KRAS WT) [nM]	IC50 (KRAS G12V) [nM]	IC50 (NCI-H358 (K-Ras G12C); [7]) [nM]	IC50 (KRAS G13C; [8]) [nM]	IC50 (NRAS G12C; [9]) [nM]	IC50 (KRAS G13D; [10]) [nM]	IC50 (KRAS G12C; [12]) [nM]	IC50 (KRAS G12D; [13]) [nM]	IC50 (KRAS G12S; [14]) [nM]	IC50 (KRAS WT; [15]) [nM]	IC50 (KRAS G12V; [16]) [nM]	also measured
CCn1c(-c2cnccc2COC)c2c3cc(ccc31)-c1cc(O)cc(c1)C[C@H](NC(=O)[C@H](C(C)C)N(C)C(=O)CN(C)C(=O)[C@@H]1CN1)C(=O)N1CCC[C@H](N1)C(=O)OCC(C)(C)C2 [Compound 8]	< 5000	10 to 100	10 to 100	10 to 100	100 to 1000	1000 to 10000	10 to 100	100 to 1000	10 to 100	100 to 1000	100 to 1000	–	–	–	–	–	–	–	–	–	–
CCn1c(-c2cnccc2COC)c2c3cc(ccc31)-c1cc(O)cc(c1)C[C@H](NC(=O)[C@@H](CNC1=NCCO1)C(C)C)C(=O)N1CCC[C@H](N1)C(=O)OCC(C)(C)C2 [Compound 29]	–	–	–	–	–	–	–	–	–	–	–	1000 to 10000	1000 to 10000	1000 to 10000	1000 to 10000	1000 to 10000	1000 to 10000	1000 to 10000	1000 to 10000	1000 to 10000	IC50 (AsPC-1 (K-Ras G12D) [2]; [11]): 1000 to 10000 nM
CCn1c(-c2cnccc2COC)c2c3cc(ccc31)-c1cc(O)cc(c1)C[C@H](NC(=O)[C@H](C(C)C)N(C)C(=O)CN(C)C(=O)[C@@H]1[C@H](C(=O)OC)N1[S@@+]([O-])C(C)(C)C)C(=O)N1CCC[C@H](N1)C(=O)OCC(C)(C)C2 (some centres unmarked) [Compound 50]	< 5000	–	–	–	–	–	–	–	–	–	–	–	10 to 100	10 to 100	100 to 1000	10 to 100	100 to 1000	10 to 100	100 to 1000	10 to 100	IC50 (NCI-H358 (K-Ras G12C); read-out: H358 Cell Viability IC50): 100 to 1000 nM; IC50 (AsPC-1 (K-Ras G12D) [2]; read-out: AsPC-1 Cell Viability IC50): > 10000 nM
CCn1c(-c2cccnc2[C@H](C)OC)c2c3cc(ccc31)-c1cc(O)cc(c1)C[C@H](NC(=O)[C@H](C(C)C)N1CC[C@@]3(CCCN(C(=O)[C@@H]4CN4)C3)C1=O)C(=O)N1CCC[C@H](N1)C(=O)OCC(C)(C)C2 [Compound 191]	–	–	–	–	–	–	–	–	–	–	–	10 to 100	10 to 100	10 to 100	100 to 1000	10 to 100	100 to 1000	10 to 100	10 to 100	100 to 1000	EC50 (AsPC-1 (K-Ras G12D) [1]; ASPC1, AsPC-1 cells, K-Ras G12D, read-out: pERK EC50 (AsPC-1 KRAS G12D)): < 5000 nM; IC50 (AsPC-1 (K-Ras G12D) [2]; [11]): 1000 to 10000 nM
CCn1c(-c2cccnc2[C@H](C)OC)c2c3cc(ccc31)-c1cc(O)cc(c1)C[C@H](NC(=O)[C@H](C(C)C)N(C)C(=O)CN(C)C(=O)[C@@H]1CN1)C(=O)N1CCC[C@H](N1)C(=O)OCC(C)(C)C2 [Compound 150]	< 5000	< 10	10 to 100	< 10	10 to 100	100 to 1000	< 10	10 to 100	10 to 100	10 to 100	10 to 100	–	–	–	–	–	–	–	–	–	–
CCn1c(-c2cnccc2COC)c2c3cc(ccc31)-c1cc(O)cc(c1)C[C@H](NC(=O)[C@H](C(C)C)N(C)C(=O)CN(C)C(=O)[C@H]1CN1Cc1ccccc1)C(=O)N1CCC[C@H](N1)C(=O)OCC(C)(C)C2 (some centres unmarked) [Compound 9]	< 5000	10 to 100	100 to 1000	10 to 100	100 to 1000	1000 to 10000	10 to 100	1000 to 10000	100 to 1000	100 to 1000	100 to 1000	–	–	–	–	–	–	–	–	–	–
